The subject of assay [1] is GABA neurons of C. elegans Punc-25. Nature of the assay: C. elegans GABA neuron degeneration scoring (GFP-labelled neurons). Conditions: 48 h exposure. The format is in vivo, Caenorhabditis elegans. The protocol: The strain BY200 Pdat-1::gfp (vtIs1), dat-1::GFP(vtls1) was kindly provided by the Blakely laboratory, Vanderbilt University Medical Center and the strain Punc-25:GFP was obtained from the Caenorhabditis Genetics Center (CGC, University of Minnesota, Minneapolis, MN, USA). The worms were maintained in nematode growth medium (NGM) plates that contain: 3 g/l NaCl, 17 g/l agar, 2.5 g/l peptone, 1 mM CaCl2, 5 mg/l cholesterol, 1 mM MgSO4, 25 mM potassium phosphate buffer (pH 6.0) with 1.25 ml nystatin and 50 mg/l streptomycin sulfate) and Escherichia coli (E. coli) OP50 strain was used as food ([Brenner, 1974]). […]
On day 2 and day 8, approximately, 20–30 worms per treatment were picked onto slides prepped with a 3% agarose pad, anesthetized with 5 μl of 3 mM levamisole hydrochloride ([Sulston et al., 1975]) and observed under an Olympus BX41 fluorescence microscope to determine morphology status according to novel Likert-like scale of degeneration as previously described ([Benedetto et al., 2010]).
Fig. 5. […] They were exposed to different aerugine concentrations and counted every 24 h. […] Differences on a given day were analyzed by ANOVA and found to be non-significant. […] The GFP-labelled neurons of 20–30 worms per condition were analyzed and scored for specific neurodegeneration. […] These scores were assessed to quantify the dopaminergic neurodegeneration caused be aerugine in vivo. […]

The next assay relates to d3 LUHMES cells. Put plainly: Aerugine toxicity in glucose vs galactose medium. The assay is classed as cell-based, human. The protocol:
Ückert et al. (2023): Identification of the bacterial metabolite aerugine as potential trigger of human dopaminergic […]
A The effect of aerugine on respiratory function was analysed in d3 LUHMES cells. The oxygen consumption rate of the individual technical replicates is shown. The oxygen consumption rate is normalised to the last measurement before injection. The injections of aerugine, control and the subsequent assay tool compounds are indicated (FCCP: 1.5 µM; oligomycin: 1 µM; rotenone + antimycin A: 0.5 µM +0.5 µM). B Several parameters were derived from the oxygen consumption rate. The data is presented as means ± SD of four replicates (obtained from one cell batch). Statistical analysis was performed using a one-way ANOVA with Dunnett‘s multiple comparisons test. * = p < 0.0001. C Delp et al. (2019) determined the dependence of LUHMES cells on glycolysis and their mitochondria for ATP production in two different media conditions. […]
mitochondrial metabolism in producing ATP in the two different media. D Aerugine toxicity was assessed in d3 LUHMES cells cultured in glucose and in galactose medium. Cell viability was assessed by calcein-AM & H-33342 staining and automated fluorescence microscopy. Double positive cells were counted as viable, H-33342 mono-positive cells were counted as dead.

The values below come from PMC10666548, “Identification of the bacterial metabolite aerugine as potential trigger of human dopaminergic neurodegeneration” (Environment international, 2023).

Regarding `OCC1CSC(c2ccccc2O)=N1` (centres unmarked) [aerugine, 2-[4-(hydroxymethyl)-4,5-dihydro-1,3-thiazol-2-yl]phenol], in assay [1], the “degeneration of GABA neurons” value is listed as “not affected”. Further, the “toxicity in galactose vs glucose medium” value in the assay on d3 LUHMES cells was “no increased aerugine toxicity was observed”.
